Laboratory results published in paper PMC6009948, “Design and synthesis of benzopyran-based inhibitors of the hypoxia-inducible factor-1 pathway with improved water solubility” (Journal of Enzyme Inhibition and Medicinal Chemistry, 2017).
pIC50: −log10 of the molar value. Converted amounts (≈) assume the structure as drawn. Where two headings read alike, the source gives them in different places.

Assays:
[1] = system: hypoxia-induced HIF transcriptional activity; assay: HRE-luciferase reporter assay in LN229-HRE-luciferase glioma cells; type: cell-based; conditions: read-out: IC50, HRE-luciferase reporter inhibitory activity
Method: These analogs were first evaluated for their ability to inhibit hypoxia-induced HIF transcriptional activity in LN229-HRE-luciferase glioma cells as described previously. Their inhibitory activities are presented as IC50 in Table 1.
All the analogs were assessed for their ability to inhibit the HIF-1 pathway using a luciferase reporter assay described previously. This assay reports the ability for a compound to inhibit HIF transcriptional activity. […] The same is true if the morpholino unit is directly attached to the sulfonyl group (6). In the two series of compounds (3, 4) with a substituted phenyl group replacing the benzopyran ring in 1, only introduction of the morpholino moiety at the para positions (3) allowed for the preservation of HIF inhibition activity.

[2] = Solubility by dynamic light scattering (particle aggregation); type: physicochemical; conditions: DLS; for Concentration of particle appearance in PBS: PBS with 1% DMSO, rested 1 h; for Concentration of particle appearance in water: de-ionised water with 1% DMSO, room temperature, rested 24 h
Method: To further investigate the true enhancement of solubility, particle aggregation was examined using dynamic light scattering (DLS). Selected compounds were treated according to the following procedure: • All centrifuge tubes and cuvettes were rinsed with either DCM or water and then vacuum dried before use to remove dust and any particulates. • Stock solutions (10 mM) of each compound of interest were prepared in filtered DMSO. • Six dilutions (0, 10, 20, 30, 50, and 100 µM) were prepared in filtered de-ionised water with 1% DMSO and allowed to rest at room temperature for 24 h after vortex. • DLS analysis was performed for each concentration on the Brookhaven Instrument Corporation, NanoBrook 90Plus Particle Size Analyzer, Version 5.20 (Holtsville, NY). • Additional experiments were performed at specific concentrations for each compound as follows: 0, 1, 3, 10, and 20 µM concentrations of 1; 0, 10, 12, and 20 µM of 2; 0, 5, 7, and 10 µM of 3a; and 0, 10, 20, 30, and 50 µM concentrations of 4a. • Additional experiments were repeated in filtered PBS* with 1% DMSO as follows: 0, 0.5, 1, 2, 3, and 5 µM concentrations of 1; 0, 5, 7, 10, 12, and 15 µM of 2; 0, 10, 12, 15, and 20 µM of 3a; and 0, 10, 20, 30, and 50 µM concentrations of 4a.
*Experiments in PBS were carried out the same way as the experiments in water except DMSO stock solutions were made at 5 mM and the PBS diluted samples rested for 1 h before particle analysis.
To investigate the true enhancement of aqueous solubility, particle aggregation was examined using DLS. DLS can detect particle sizes in solution by measuring changes in scattered light in relation to the Brownian motion of particles. It is commonly used to detect the particle sizes of various chemical and biological molecules, including small molecule inhibitors. Though there are several methods for detecting solubility, we chose the DLS method due to its ease, reproducibility, minimal sample requirement, and relative sensitivity to small particles.
The active compounds 3a and 4a were compared to their non-morpholine containing counterparts, 1 and 2, respectively (Figure 3). Solutions of varying concentrations of each compound were made in either water or PBS with 1% DMSO. […] DLS measurements, summarised in Table 2, reveal that 3a forms aggregates at approximately 10 µM, an order of magnitude higher than 1, which is insoluble at just 1 µM in water.

[3] = system: hypoxia-induced HIF transcriptional activity; conditions: cited from earlier work
[4] = design: method as in earlier work; conditions: cited from earlier work
[5] = system: brain, and pancreatic cancers; design: method as in earlier work; conditions: cited from earlier work
[6] = design: method as in earlier work; conditions: daily treatments with 60 mg/kg for up to 12 weeks; cited from earlier work
[7] = design: method as in earlier work; conditions: cited from earlier work; remark: listed apart in the source

“3,4-Dimethoxy-N-(2-(morpholinomethyl)benzyl)-N-phenylbenzenesulfonamide [Compound 3c]” showed a pIC50 [1] of less than 5.30.

In the case of `COc1ccc(S(=O)(=O)N(Cc2ccc3c(c2)C=CC(C)(C)O3)c2ccccc2)cc1OC` [Compound 1, N-((2,2-dimethyl-2H-chromen-6-yl)methyl)-3,4-dimethoxy-N-phenylbenzenesulfonamide], the “Concentration of particle appearance in PBS” value (from here on “Concentration … in PBS”) [2] is given as 1 µM, the “Concentration of particle appearance in water” value (“Concentration … in water” for short) [2] is given as 1 µM and the pIC50 ([3]; lead compound 1 (KCN1), read-out: IC50, HIF-dependent bioassay (HRE-luciferase reporter)) is given as roughly 6.22. The solubility in water [4] was 9 ng/mL (≈ 0.0193 µM), the “in vivo inhibitory activity against brain, and pancreatic cancers” value [5] was “very pronounced inhibitory activity” and the “tolerability / side effects in mice” value [6] was “minimal side effects”. For the same compound, the cytotoxicity [7] was “Neither did 1 nor its analogs demonstrate cytotoxicity”.

In the case of `COc1ccc(S(=O)(=O)N(Cc2ccc3c(n2)C=CC(C)(C)O3)C2CCC2)cc1OC` [Compound 2, N-cyclobutyl-N-((2,2-dimethyl-2H-pyrano[3,2-b]pyridin-6-yl)methyl)-3,4-dimethoxybenzenesulfonamide], the “Concentration … in PBS” value [2] is given as 10 µM, the “Concentration … in water” value [2] is given as 10 µM and the pIC50 ([3]; lead compound 2 (64b), read-out: IC50, HRE-luciferase reporter inhibitory activity) is given as roughly 6.52.

In the case of `COc1ccc(S(=O)(=O)N(Cc2ccc(CN3CCOCC3)cc2)c2ccccc2)cc1OC` [Compound 3a, 3,4-Dimethoxy-N-(4-(morpholinomethyl)benzyl)-N-phenylbenzenesulfonamide], the pIC50 ([1]; Glioma cell) was 6.05 and the “Concentration … in PBS” value [2] was 15 µM.

`COc1ccc(S(=O)(=O)N(Cc2cccc(CN3CCOCC3)c2)c2ccccc2)cc1OC` [Compound 3b, 3,4-Dimethoxy-N-(3-(morpholinomethyl)benzyl)-N-phenylbenzenesulfonamide] showed a pIC50 ([1]; Glioma cell) of less than 5.30.

For `COc1ccc(S(=O)(=O)N(Cc2ccc(N3CCOCC3)cc2)c2ccccc2)cc1OC` [Compound 3d, 3,4-Dimethoxy-N-(4-morpholinobenzyl)-N-phenylbenzenesulfonamide], the pIC50 ([1]; Glioma cell) was 5.42.

In the case of `COc1ccc(S(=O)(=O)N(Cc2ccc(CN3CCOCC3)cc2)C2CCC2)cc1OC` [Compound 4a, N-Cyclobutyl-3,4-dimethoxy-N-(4-(morpholinomethyl)benzyl)benzenesulfonamide], the pIC50 ([1]; Glioma cell) was 6.00 and the “Concentration … in water” value [2] was greater than 100 µM.

`COc1ccc(S(=O)(=O)N(Cc2cccc(CN3CCOCC3)c2)C2CCC2)cc1OC` [Compound 4b, N-Cyclobutyl-3,4-dimethoxy-N-(3-(morpholinomethyl)benzyl)benzenesulfonamide] showed a pIC50 ([1]; Glioma cell) of less than 5.30.

Compound `COc1ccc(S(=O)(=O)N(Cc2ccc(N3CCOCC3)cc2)C2CCC2)cc1OC` [Compound 4d, N-Cyclobutyl-3,4-dimethoxy-N-(4-morpholinobenzyl)benzenesulfonamide] has a pIC50 ([1]; Glioma cell) of roughly 5.59.

Compound `COc1ccc(S(=O)(=O)N(CCN2CCOCC2)Cc2ccc3c(c2)C=CC(C)(C)O3)cc1OC` [Compound 5a, N-((2,2-Dimethyl-2H-chromen-6-yl)methyl)-3,4-dimethoxy-N-(2-morpholinoethyl)benzenesulfonamide] has a pIC50 ([1]; Glioma cell) of less than 5.30.

In the case of `COc1ccc(S(=O)(=O)N(CCCN2CCOCC2)Cc2ccc3c(c2)C=CC(C)(C)O3)cc1OC` [Compound 5b, N-((2,2-Dimethyl-2H-chromen-6-yl)methyl)-3,4-dimethoxy-N-(3-morpholinopropyl)benzenesulfonamide], the pIC50 ([1]; Glioma cell) was less than 5.30.

For `CC1(C)C=Cc2cc(CN(c3ccccc3)S(=O)(=O)N3CCOCC3)ccc2O1` [Compound 6a, N-((2,2-Dimethyl-2H-chromen-6-yl)methyl)-N-phenylmorpholine-4-sulfonamide], the pIC50 ([1]; Glioma cell) was less than 5.30.

With `CC1(C)C=Cc2cc(CN(C3CCC3)S(=O)(=O)N3CCOCC3)ccc2O1` [Compound 6b, N-Cyclobutyl-N-((2,2-dimethyl-2H-chromen-6-yl)methyl)morpholine-4-sulfonamide] the pIC50 ([1]; Glioma cell) was less than 5.30.

“N-Cyclobutyl-3,4-dimethoxy-N-(2-(morpholinomethyl)benzyl)benzenesulfonamide [Compound 4c]” gave a pIC50 [1] of less than 5.30.
